Test results: patent publication US20200346047A1, “METHOD AND KIT FOR HOME CONTROLLED OVARIAN STIMULATION FOR IN VITRO FERTILIZATION” (priority 2019, published 2020)
Several values for one entry are separate records, joined by “and”; a condition that tells them apart may be missing. Equal entries are not always repeated. Square brackets hold non-standard residues; d marks the D form. Peptide text beside a SMILES is read from it. d(hArg(Et2)) = CCN=C(NCC)NCCCC[C@@H](N)C(=O)O; hArg(Et2) = CCN=C(NCC)NCCCC[C@H](N)C(=O)O; dPhe(4-Cl) = N[C@H](Cc1ccc(Cl)cc1)C(=O)O; d2Nal = N[C@H](Cc1ccc2ccccc2c1)C(=O)O; d3Pal = N[C@H](Cc1cccnc1)C(=O)O

Legend:
LH blood hormone level [1] = test: LH blood level under conventional GnRH antagonist injection protocol (Example 1); format: in vivo, female patients
Experimental: Five female patients were treated with a GnRH antagonist protocol requiring injections of medications.
One patient, patient no. 1, was injected with 150 Units of FSH on days 3 to 12; half a syringe of 150 mcg/0.5 mL of ganirelix acetate on days 11 and 12; and 50 mg of clomiphene citrate on days 3 to 12; and 2.5 mg of letrozole on days 3 to 7. Luteinizing hormone (LH) blood level was 4.3 mIU/mL on day 10 and dropped to 2 mIU/mL on day 12.
A second patient, patient no. 2, was injected with 75 Units of FSH on days 4 to 12 and 150 Units on day 13; half a syringe of 150 mcg/0.5 mL of ganirelix acetate on days 11 to 13; 50 mg of clomiphene citrate on days 10 to 12, and 2.5 mg of letrozole on days 3 to 7. Luteinizing hormone (LH) blood level was 12.0 mIU/mL on day 11 and dropped to 6.3 mIU/mL on day 13.
Three patients, numbered 3 to 5, were injected with 75, 150 and 225 Units of FSH, respectively, on days 4 to 12 and one third a syringe of 150 mcg/0.5 mL of ganirelix acetate on days 11 to 13. Patient no. 3 received 50 mg of clomiphene citrate on days 4 to 12, and 2.5 mg of letrozole on days 4 to 8. Patient no. 4 received 100 mg of clomiphene citrate and 2.5 mg of letrozole on days 4 to 8, and 50 mg of clomiphene citrate on days 9 to 11. Patient no. 5 received no clomiphene citrate or letrozole. Luteinizing hormone (LH) blood level was 12.0, 18.0 and 14.6 mIU/mL, respectively, on day 10 and dropped to 4.9, 16.0 and 14.1 mIU/mL, respectively, on day 12.
Table 2 below provides a comparison of the efficacy of conventional Ganirelex/Cetrotide injectables treatment for IVF in the five representative patients from Example 1 with the home controlled ovarian hyperstimulation method described herein in the five representative patients from Example 2.

LH blood hormone level [2] = test: LH blood level under home controlled ovarian hyperstimulation method with vaginal elagolix (Example 2); format: in vivo, female patients; conditions: lower dose of elagolix taken as a vaginal suppository instead of orally
Experimental: On day 9 of the menstrual cycle, the patient is directed to orally take 50 to 150 mg, preferably 100 mg, (one, two, or three 50 mg oral tablets) of clomiphene citrate and to either insert vaginally or take orally, depending on the patient's preference, a gonadotropin-releasing hormone (GnRH) antagonist such as elagolix (marketed as ORILISSA®), instead of the expensive injections of ganirelix acetate (GANIRELEX®) or cetrorelix acetate (marketed as CETROTIDE®) used routinely in conventional practices. A dose of 25 mg (⅛^th of a pill) up to 200 mg of elagolix (1 full pill), preferably 25 mg, will be used, with the dose being the same whether inserted vaginally or taken orally. Elagolix is a GnRH antagonist that is conventionally used in the treatment of pain associated with endometriosis in women, not for the treatment of infertility. By blocking the GnRH receptor, elagolix suppresses LH release by the pituitary gland and thus prevents LH surge. Ultimately, elagolix suppresses gonadal steroid production, thereby reducing circulating levels of sex hormones such as progesterone, estradiol, and testosterone. Elagolix is generally an oral medication (oral tablet), however in the present method, elagolix is a tablet taken mainly as a vaginal suppository, but may be taken orally based on the patient's preference. […]

Structure (SMILES) | LH blood hormone level AFTER medication intake (LH blood hormone level [1]; Example 1, one value per patient (patients 1-5), after ganirelix injections, listed as Conventional Ganielex/Cetrotide Injectables) | LH blood hormone level BEFORE medication intake (LH blood hormone level [1]; Example 1, one value per patient (patients 1-5), before ganirelix injections, listed as Conventional Ganielex/Cetrotide Injectables) | % Drop in blood LH hormone level (LH blood hormone level [1]; Example 1, one value per patient (patients 1-5), listed as Conventional Ganielex/Cetrotide Injectables) [%] | Luteinizing hormone (LH) blood level (LH blood hormone level [1]; patient no. 1, day 10, half a syringe of 150 mcg/0.5 mL ganirelix acetate on days 11 and 12) [mIU/mL] | drop in LH blood hormone levels (LH blood hormone level [1]; patient no. 1, day 10 to day 12) [%] | Luteinizing hormone (LH) blood level (LH blood hormone level [1]; patient no. 1, day 12, half a syringe of 150 mcg/0.5 mL ganirelix acetate on days 11 and 12) [mIU/mL] | Luteinizing hormone (LH) blood level (LH blood hormone level [1]; patient no. 2, day 11, half a syringe of 150 mcg/0.5 mL ganirelix acetate on days 11 to 13) [mIU/mL] | drop in LH blood hormone levels (LH blood hormone level [1]; patient no. 2, day 11 to day 13) [%] | Luteinizing hormone (LH) blood level (LH blood hormone level [1]; patient no. 2, day 13, half a syringe of 150 mcg/0.5 mL ganirelix acetate on days 11 to 13) [mIU/mL] | Luteinizing hormone (LH) blood level (LH blood hormone level [1]; patient no. 3, day 10, one third a syringe of 150 mcg/0.5 mL ganirelix acetate on days 11 to 13) [mIU/mL] | drop in LH blood hormone levels (LH blood hormone level [1]; patient no. 3, day 10 to day 12) [%] | Luteinizing hormone (LH) blood level (LH blood hormone level [1]; patient no. 3, day 12, one third a syringe of 150 mcg/0.5 mL ganirelix acetate on days 11 to 13) [mIU/mL] | Luteinizing hormone (LH) blood level (LH blood hormone level [1]; patient no. 4, day 10, one third a syringe of 150 mcg/0.5 mL ganirelix acetate on days 11 to 13) [mIU/mL] | drop in LH blood hormone levels (LH blood hormone level [1]; patient no. 4, day 10 to day 12) [%] | Luteinizing hormone (LH) blood level (LH blood hormone level [1]; patient no. 4, day 12, one third a syringe of 150 mcg/0.5 mL ganirelix acetate on days 11 to 13) [mIU/mL] | Luteinizing hormone (LH) blood level (LH blood hormone level [1]; patient no. 5, day 10, one third a syringe of 150 mcg/0.5 mL ganirelix acetate on days 11 to 13, no clomiphene citrate or letrozole) [mIU/mL] | drop in LH blood hormone levels (LH blood hormone level [1]; patient no. 5, day 10 to day 12) [%] | Luteinizing hormone (LH) blood level (LH blood hormone level [1]; patient no. 5, day 12, one third a syringe of 150 mcg/0.5 mL ganirelix acetate on days 11 to 13, no clomiphene citrate or letrozole) [mIU/mL] | effectiveness as GnRH antagonist in the patients (LH blood hormone level [2])
CCN=C(NCC)NCCCC[C@H](NC(=O)[C@H](CC(C)C)NC(=O)[C@@H](CCCCNC(=NCC)NCC)NC(=O)[C@H](Cc1ccc(O)cc1)NC(=O)[C@H](CO)NC(=O)[C@@H](Cc1cccnc1)NC(=O)[C@@H](Cc1ccc(Cl)cc1)NC(=O)[C@@H](Cc1ccc2ccccc2c1)NC(C)=O)C(=O)N1CCC[C@H]1C(=O)N[C@H](C)C(N)=O [Ganirelex, ganirelix acetate] (Ac-[d2Nal][dPhe(4-Cl)][d3Pal]SY[d(hArg(Et2))]L[hArg(Et2)]P[dA]-NH2) | 2.0 mIU/mL and 6.3 mIU/mL and 4.9 mIU/mL and 16.0 mIU/mL | 4.3 mIU/mL and 12.0 mIU/mL (2×) and 18.0 mIU/mL | 3.4 | 4.3 | 53.5 | 2 | 12.0 | 47.5 | 6.3 | 12.0 | 59.25 | 4.9 | 18.0 | 11.1 | 16.0 | 14.6 | 3.4 | 14.1 | –
COc1cccc(-c2c(C)n(Cc3c(F)cccc3C(F)(F)F)c(=O)n(C[C@H](NCCCC(=O)O)c3ccccc3)c2=O)c1F [elagolix] | – | – | – | – | – | – | – | – | – | – | – | – | – | – | – | – | – | – | effective GnRH antagonist
